# Test results as given in patent US20110040086A1, “Novel Beta-Lactam Antibiotics, Methods for Their Production, and Their Use” (DRITTE PATENTPORTFOLIO BETEILIGUNGSGESELLSCHAFT MB, priority 2007, published 2011).
# Columns and labels:
# S. aureus ATCC 6538 = experiment: agar diffusion test (Test System II, multi-resistant germs); format: cell-based, Staphylococcus aureus
# Summary of the method: (§1)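 A McFarland 0.5 bacterial suspension in physiological saline is spread vertically, horizontally and transversely over Müller-Hinton agar II. Three sensi-discs bearing 10, 50 and 100 μg of test compound go onto each plate, which then incubates at 37 °C for 18-20 h before zone diameters are recorded.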
# S. aureus 38418 = experiment: as above; format: cell-based, Staphylococcus aureus
# Summary of the method: as §1
# S. aureus 39105 = experiment: as above; format: cell-based, Staphylococcus aureus; design: key: r = resistant (no detectable zone of inhibition)
# Summary of the method: as §1
# S. aureus 36881 = experiment: as above; format: cell-based, Staphylococcus aureus; design: key: r = resistant (no detectable zone of inhibition)
# Summary of the method: as §1
# [1] = system: S. aureus North Germany strain; experiment: as above; format: cell-based, Staphylococcus aureus; design: key: r = resistant (no detectable zone of inhibition)
# Summary of the method: as §1
# S. aureus 34289 = experiment: as above; format: cell-based, Staphylococcus aureus; design: key: r = resistant (no detectable zone of inhibition)
# Summary of the method: as §1
# S. aureus 526 = experiment: as above; format: cell-based, Staphylococcus aureus; design: key: r = resistant (no detectable zone of inhibition)
# Summary of the method: as §1
# S. aureus 520 = experiment: as above; format: cell-based, Staphylococcus aureus; design: key: r = resistant (no detectable zone of inhibition)
# Summary of the method: as §1
# S. aureus 33490 = experiment: as above; format: cell-based, Staphylococcus aureus; design: key: r = resistant (no detectable zone of inhibition)
# Summary of the method: as §1
# E. faecalis 945 = experiment: as above; format: cell-based, Enterococcus faecalis; design: key: r = resistant (no detectable zone of inhibition)
# Summary of the method: as §1
# [2] = system: Staphylococcus aureus ATCC 6538; experiment: mouse infected with Staphylococcus aureus infection model (survival); format: in vivo, BALB/c mice
# Description: Method for Effectiveness In Vivo with the Mouse Infected with Staphylococcus aureus Model
# On Day 0, at least 3 BALB/c mice per test substance (Table 8) or controls are pretreated with cyclophosphamide (250 mg/kg) in 250 μl PBS inta peritoneal (i.p.).
# On Day 2, the animals again received 100 mg/kg i.p.
# On Day 2, a colony of the test germ is transferred from a growing agar plate (Müller-Hinton-Agar, Beckton Dickinson) into a flask with 10 ml CASO broth (CASO-B., Soyabean peptone-Casein peptone broth, SIFIN, 30 g/l) and is cultivated overnight at 37° C. and a shaking frequency of 250 rpm.
# On Day 3, the pre-culture (Vk) is diluted 1:50 with CASO-B and further cultivated ca. 2 hours until an extinction in the medium of 0.6 at a wavelength of 550 nm is reached. Then, it is grown 1× with PBS at room temperature and set again to an extinction of 0.6.
# At least 3 animals for a test substance or controls are infected with 10 μl/g body weight grown germs of a bacteria suspension with the extinction 0.6 (ca. 10^10-10^12 CFU, Colony forming units) i.p.
# After 30 minutes, antibiotic solution is injected into the mice in a volume of 200 μl PBS with 3% DMSO i.p. 6 hours later, the second antibiotic injection is performed at the same concentration. […]
# [3] = system: Enterococcus faecalis 769; experiment: agar diffusion test (Test System II, multi-resistant germs); format: cell-based; design: key: r = resistant (no detectable zone of inhibition)
# Summary of the method: as §1
# B. subtilis AWD 166 = experiment: agar diffusion test (antimicrobial effect); format: cell-based, Bacillus subtilis
# Summary of the method: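 Nutrient agar seeded with B. subtilis AWD 166 to give dense non-confluent colonies; compounds in methanol or distilled water applied to discs at 10, 50, 100 μg. After 20 h at 37 °C, inhibition zone diameter measured in mm.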
# [4] = system: Escherichia coli SBUG 1135; experiment: agar diffusion test (Test System 1, antimicrobial effect); format: cell-based; design: key: r = resistant (no detectable zone of inhibition)
# Summary of the method: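 E. coli SBUG 1135 grown 17 h at 37° C, 180 rpm, diluted 1:100 and seeded in nutrient agar at ~10^6 cells. Discs loaded with 10, 50 or 100 μg compound (methanol or water); inhibition-zone diameter (mm) read after 20 h at 37° C.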
substance,measurement,setting,value
"7-[2-(2-carbamoyl-3,6-dioxocyclohexa-1,4-dienylamino)-2-(4-hydroxyphenyl)-acetylamino]-desacetoxycephalosporanic acid [1b]",Diameter of zone of inhibition,S. aureus ATCC 6538; Quantity n 0.019,16 mm
same,Diameter of zone of inhibition,S. aureus ATCC 6538; Quantity n 0.1,24 mm
same,Diameter of zone of inhibition,S. aureus ATCC 6538; Quantity n 0.19,28 mm
same,Diameter of zone of inhibition,S. aureus 38418; Quantity n [mol] 0.019,16 mm
same,Diameter of zone of inhibition,S. aureus 38418; Quantity n [mol] 0.1,24 mm
same,Diameter of zone of inhibition,S. aureus 38418; Quantity n [mol] 0.19,26 mm
same,Diameter of zone of inhibition,S. aureus 39105; Quantity n 0.019,r
same,Diameter of zone of inhibition,S. aureus 39105; Quantity n 0.1,12 mm
same,Diameter of zone of inhibition,S. aureus 39105; Quantity n 0.19,18 mm
same,Diameter of zone of inhibition,S. aureus 36881; Quantity n 0.019,r
same,Diameter of zone of inhibition,S. aureus 36881; Quantity n 0.1,12 mm
same,Diameter of zone of inhibition,S. aureus 36881; Quantity n 0.19,18 mm
same,Diameter of zone of inhibition,[1]; Quantity n 0.019,r
same,Diameter of zone of inhibition,[1]; Quantity n 0.1,8 mm
same,Diameter of zone of inhibition,[1]; Quantity n 0.19,12 mm
same,Diameter of zone of inhibition,S. aureus 34289; Quantity n [mol] 0.019,r
same,Diameter of zone of inhibition,S. aureus 34289; Quantity n [mol] 0.1,r
same,Diameter of zone of inhibition,S. aureus 34289; Quantity n [mol] 0.19,12 mm
same,Diameter of zone of inhibition,S. aureus 526; Quantity n 0.019,r
same,Diameter of zone of inhibition,S. aureus 526; Quantity n 0.1,r
same,Diameter of zone of inhibition,S. aureus 526; Quantity n 0.19,12 mm
same,Diameter of zone of inhibition,S. aureus 520; Quantity n [mol] 0.019,r
same,Diameter of zone of inhibition,S. aureus 520; Quantity n [mol] 0.1,r
same,Diameter of zone of inhibition,S. aureus 520; Quantity n [mol] 0.19,r
same,Diameter of zone of inhibition,S. aureus 33490; Quantity n [μmol] 0.019,r
same,Diameter of zone of inhibition,S. aureus 33490; Quantity n [μmol] 0.1,14 mm
same,Diameter of zone of inhibition,S. aureus 33490; Quantity n [μmol] 0.19,20 mm
same,Diameter of zone of inhibition,E. faecalis 945; Quantity n 0.019,r
same,Diameter of zone of inhibition,E. faecalis 945; Quantity n 0.1,r
same,Diameter of zone of inhibition,E. faecalis 945; Quantity n 0.19,r
same,Survival/tested mice n/n,[2]; 2 × 1.0 mg (50 mg/kg) i.p.,6/6
same,Diameter of zone of inhibition,[3]; Quantity n 0.019,r
same,Diameter of zone of inhibition,[3]; Quantity n 0.1,r
same,Diameter of zone of inhibition,[3]; Quantity n 0.19,r
same,Diameter of zone of inhibition,B. subtilis AWD 166; Quantity n 0.019,22 mm
same,Diameter of zone of inhibition,B. subtilis AWD 166; Quantity n 0.1,30 mm
same,Diameter of zone of inhibition,B. subtilis AWD 166; Quantity n 0.19,32 mm
same,Diameter of zone of inhibition,[4]; Quantity n 0.019,r
same,Diameter of zone of inhibition,[4]; Quantity n 0.1,14 mm
same,Diameter of zone of inhibition,[4]; Quantity n 0.19,18 mm
"7-{2-[2-(2-hydroxyethylcarbamoyl)-3,6-dioxocyclohexa-1,4-dienylamino]-2-phenyl-acetylamino}-desacetoxycephalosporanic acid [1e]",Diameter of zone of inhibition,S. aureus ATCC 6538; Quantity n 0.029,20 mm
same,Diameter of zone of inhibition,S. aureus ATCC 6538; Quantity n 0.14,30 mm
same,Diameter of zone of inhibition,S. aureus ATCC 6538; Quantity n 0.29,32 mm
same,Diameter of zone of inhibition,S. aureus 38418; Quantity n [mol] 0.029,14 mm
same,Diameter of zone of inhibition,S. aureus 38418; Quantity n [mol] 0.14,26 mm
same,Diameter of zone of inhibition,S. aureus 38418; Quantity n [mol] 0.29,30 mm
same,Diameter of zone of inhibition,S. aureus 39105; Quantity n 0.029,r
same,Diameter of zone of inhibition,S. aureus 39105; Quantity n 0.14,r
same,Diameter of zone of inhibition,S. aureus 39105; Quantity n 0.29,14 mm
same,Diameter of zone of inhibition,S. aureus 36881; Quantity n 0.029,r
same,Diameter of zone of inhibition,S. aureus 36881; Quantity n 0.14,r
same,Diameter of zone of inhibition,S. aureus 36881; Quantity n 0.29,14 mm
same,Diameter of zone of inhibition,[1]; Quantity n 0.029,r
same,Diameter of zone of inhibition,[1]; Quantity n 0.14,10 mm
same,Diameter of zone of inhibition,[1]; Quantity n 0.29,16 mm
same,Diameter of zone of inhibition,S. aureus 34289; Quantity n [mol] 0.029,r
same,Diameter of zone of inhibition,S. aureus 34289; Quantity n [mol] 0.14,r
same,Diameter of zone of inhibition,S. aureus 34289; Quantity n [mol] 0.29,r
same,Diameter of zone of inhibition,S. aureus 526; Quantity n 0.029,r
same,Diameter of zone of inhibition,S. aureus 526; Quantity n 0.14,r
same,Diameter of zone of inhibition,S. aureus 526; Quantity n 0.29,r
same,Diameter of zone of inhibition,S. aureus 520; Quantity n [mol] 0.029,r
same,Diameter of zone of inhibition,S. aureus 520; Quantity n [mol] 0.14,r
same,Diameter of zone of inhibition,S. aureus 520; Quantity n [mol] 0.29,r
same,Diameter of zone of inhibition,S. aureus 33490; Quantity n [μmol] 0.029,8 mm
same,Diameter of zone of inhibition,S. aureus 33490; Quantity n [μmol] 0.14,16 mm
same,Diameter of zone of inhibition,S. aureus 33490; Quantity n [μmol] 0.29,20 mm
same,Diameter of zone of inhibition,E. faecalis 945; Quantity n 0.029,r
same,Diameter of zone of inhibition,E. faecalis 945; Quantity n 0.14,r
same,Diameter of zone of inhibition,E. faecalis 945; Quantity n 0.29,r
same,Survival/tested mice n/n,[2]; 2 × 0.5 mg (25 mg/kg) i.p.,3/3
same,Diameter of zone of inhibition,[3]; Quantity n 0.029,r
same,Diameter of zone of inhibition,[3]; Quantity n 0.14,r
same,Diameter of zone of inhibition,[3]; Quantity n 0.29,r
same,Diameter of zone of inhibition,B. subtilis AWD 166; Quantity n 0.029,22 mm
same,Diameter of zone of inhibition,B. subtilis AWD 166; Quantity n 0.14,30 mm
same,Diameter of zone of inhibition,B. subtilis AWD 166; Quantity n 0.29,32 mm
same,Diameter of zone of inhibition,[4]; Quantity n 0.029,r^2
same,Diameter of zone of inhibition,[4]; Quantity n 0.14,16 mm
same,Diameter of zone of inhibition,[4]; Quantity n 0.29,18 mm
